From patent publication US4962155A (City of Hope, priority 1987, dated 1990)
Like-named read-outs stand apart in the source and are kept apart here.

Assays:
[1] = system: insulin receptor kinase; conditions: literature, cited from earlier work
[2] = target: T1, human insulin receptor kinase (Homo sapiens, UniProt P06213); assay: Kinase assay: phosphorylation of exogenous src-related peptide by purified insulin receptor; type: biochemical; conditions: for activation of the insulin receptor kinase over the control: 1 μM basic protein or polyamine, preincubated 25° C. 1 hour, FIG. 1; for reactivation of receptor preparations that lost kinase activity or insulin dependency: aged preparations stored at -70° C.; for concentrations at which kinase activity is stimulated: dose response
T1 construct: from tissue; host or cells: human placenta (Triton X-100 solubilized membranes; wheat germ agglutinin and insulin-Sepharose chromatography)
Protocol: The substrate used is a synthetic peptide (src-related peptide) which resembles the amino acid sequence around the site of phosphorylation of the tyrosine residue in the Rous sarcoma virus transforming protein, pp60^src, with the sequence ([…], Casnellie, J. E., et al., Proc. Natl. Acad. Sci. USA 79:282 (1982).
The phosphorylation assays were carried out at 25° C. for 40 minutes in 30 ul of 50 mM Tris-HCl buffer (pH 7.4) containing 1 mM of the src-related peptide, 2 mM MnCl2, 15 mM MgCl2, 0.1% Triton X-100, and 40 μM [γ-^32 ]ATP (12,000 cpm/pmole). The reaction was terminated by adding 50 μl of 5% trichloroacetic acid (TCA) and 20 μl of bovine serum albumin (BSA) (10 mg/ml), the resulting solution was then incubated at 0° C. for 30 minutes, and the proteins were precipitated by centrifugation. Aliquots (35 μl) of the resulting supernatant were spotted on phosphocellulose paper (Whatman, P-81). The papers were extensively washed in 75 mM phosphoric acid. Duplicates of the papers were prepared from each reaction mixture and ^32 P incorporated into the src-related peptide was counted using a liquid scintillation counter.

[3] = system: β subunit of the insulin receptor and calmodulin; conditions: rat hepatocyte insulin receptor preparations, absence of insulin; literature; cited from earlier work
[4] = target: T2, insulin receptor β subunit (Homo sapiens, UniProt P06213); assay: Phosphorylation (autophosphorylation) of insulin receptor subunits, SDS-PAGE and autoradiography; type: biochemical
T2 construct: from tissue; host or cells: human placenta (Triton X-100 solubilized membranes; wheat germ agglutinin and insulin-Sepharose chromatography)
Protocol: The β subunit of the purified receptor was phosphorylated in the same manner as described above for the exogenous substrate phosphorylation. The reaction was terminated by adding 3-times concentrated Laemmli's sample buffer followed by boiling for 5 minutes. SDS-polyacrylamide gel electrophoresis was then performed under reducing conditions as described by Laemmli, U. K., Nature 227:680 (1970). The gels were stained with silver, dried, and autoradiographed.
After the kinase reaction was terminated by adding TCA and BSA as described in the above procedures, the proteins containing the insulin receptor were precipitated by centrifugation. The precipitated proteins were then subjected to SDS polyacrylamide gel electrophoresis (7.5% gel) under reducing conditions. The gels were stained with silver, dried, and autoradiographed for 30 hours using a Kodak XAR-5 film and an intensifying screen.
The insulin receptor was then phosphorylated according to the procedures described above. After the phosphorylation, the receptors were analyzed by SDS polyacrylamide gel electrophoresis (10% gel) under non-reducing conditions. The gel was dried and autoradiographed for 45 minutes at -70° C. by exposing the gel to a Kodak XAR-5 film with an intensifying screen.

[5] = target: T3, β and α subunits of the insulin receptor (Homo sapiens, UniProt P06213); assay: Phosphoamino acid analysis of phosphorylated β and α subunits by paper electrophoresis; type: biochemical
T3 construct: from tissue; host or cells: human placenta (Triton X-100 solubilized membranes; wheat germ agglutinin and insulin-Sepharose chromatography)
Protocol: Chem 254:1206 (1984), and hydrolyzing the peptides in 2N HCl for 2 hours at 110° C. The materials were then analyzed by paper electrophoresis (pH 3.5, 2000 V, 1 hour) and autoradiography.
Lanes 1-4 of FIG. 4B contain amounts of hydrolysates equal to 50% of the starting materials from the FIG. 4A gel. […] Other radioactive samples were electrophoresed together with these three phosphoamino acids. Ninhydrin spots for those are not shown. X indicates the origin of the samples.

## O[C@H](CS)[C@H](O)CS (racemic) [DTT, dithiothreitol, reference compound]
[1]
  activation of the insulin receptor kinase: activate the insulin receptor kinase
[1]; listed as dithiothreitol (DTT)
  activation of the insulin receptor kinase: activates the insulin receptor kinase
[2]; preincubation with 0.1 mM DTT
  Kinase activity: 0.059 pmol/min
[2]; preincubation with 0.5 mM DTT
  Kinase activity: 0.083 pmol/min
[2]; read-out: Kinase Activity -fold, preincubation with 0.1 mM DTT, relative to no addition
  fold induction at 100 µM: 9.8
[2]; read-out: Kinase Activity -fold, preincubation with 0.5 mM DTT, relative to no addition
  fold induction at 500 µM: 13.8

## OO [H2 O2, hydrogen peroxide]
[1]
  activation of the insulin receptor kinase: activate the insulin receptor kinase

## [Na+].[Na+].[Na+].[O]=[V]([O-])([O-])[O-] [vanadate, sodium orthovanadate]
[1]
  activation of the insulin receptor kinase: activate the insulin receptor kinase

## concanavalin A
[1]
  activation of the insulin receptor kinase: activate the insulin receptor kinase

## histone Hf2b [reference compound]
[3]
  stimulation of phosphorylation of the β subunit of the insulin receptor (and calmodulin): appeared to stimulate the phosphorylation of both the β subunit of the insulin receptor and calmodulin

## insulin
[1]
  activation of the insulin receptor kinase: activate the insulin receptor kinase

## poly L-arginine
[3]
  stimulation of phosphorylation of the β subunit of the insulin receptor (and calmodulin): effective to stimulate the phosphorylation of the β subunit of the insulin receptor
[2]; all concentrations examined, FIG. 2
  effect on kinase activity in dose response: inhibited the kinase activity of the receptor at any of the concentrations examined

## poly L-lysine
[4]; 0.25 μM poly L-lysine, non-reducing SDS-PAGE, FIG. 4A lane 3
  phosphorylation of insulin receptor subunits: stimulates phosphorylation of α and β1 subunits in addition to the β subunit
[4]; 0.001-10 μM poly L-lysine, with or without 1 μM insulin, FIG. 3B
  stimulation of β subunit autophosphorylation compared with insulin: greater than that of insulin
[3]
  stimulation of phosphorylation of the β subunit of the insulin receptor (and calmodulin): appeared to stimulate the phosphorylation of both the β subunit of the insulin receptor and calmodulin
[5]; 0.25 μM poly L-lysine, 20% of the original material, FIG. 4B lane 6
  β subunit phosphorylation, radioactivity of hydrolysate: 1700 cpm
[5]; 0.25 μM poly L-lysine, hydrolysate equal to 50% of starting material, FIG. 4B lane 4
  α subunit phosphorylation, radioactivity of hydrolysate: 1000 cpm
[5]; 1 μM insulin or 0.25 μM poly L-lysine, hydrolysate equal to 50% of starting material, FIG. 4B
  β subunit phosphorylation, radioactivity of hydrolysate: 4400 cpm
[5]; FIG. 4B
  phosphoamino acid composition of phosphorylated β and α subunits: tyrosine was found to be a major amino acid whose phosphorylation was stimulated
[2]; 0.24 μM poly L-lysine, varying src-related peptide, FIGS. 6B, 6C
  kinetic analysis (Vmax, KM), Lineweaver-Burk plots: increasing Vmax without significantly changing KM
[2]
  activation of the insulin receptor kinase over the control: approximately 5 fold
  reactivation of receptor preparations that lost kinase activity or insulin dependency: can activate certain old insulin receptor preparations
[2]; 100 μM poly L-lysine, FIG. 3A
  stimulative effect on kinase activity: can no longer be seen
[2]; listed as Poly L-lysine
  reactivation of receptor preparations that lost kinase activity or insulin dependency: able to restore the kinase activity of insulin receptor preparation that have lost some, but not all, kinase activity
[2]; FIG. 2
  concentrations at which kinase activity is stimulated: 0.1 to 1.0 µM
[2]; optimum poly L-lysine concentrations vs 1 μM insulin, FIG. 3A
  kinase activation compared with activation by insulin: much greater than the kinase activation by insulin
[2]; preincubation with 0.24 μM PLL
  Kinase activity: 0.234 pmol/min
[2]; preincubation with 0.24 μM PLL, relative to no addition
  Kinase Activity -fold: 39 fold
[2]; receptor preparation A, stored 36 Mo. at -70° C., 1 μM insulin or 0.24 μM poly L-lysine
  Kinase activity: 0.002 pmol/min
[2]; receptor preparation B, stored 28 Mo. at -70° C., 1 μM insulin or 0.24 μM poly L-lysine
  Kinase activity: 0.174 pmol/min
[2]; receptor preparation C, stored 15 Mo. at -70° C., 1 μM insulin or 0.24 μM poly L-lysine
  Kinase activity: 0.229 pmol/min
[2]; receptor preparation D, stored 3 Mo. at -70° C., 1 μM insulin or 0.24 μM poly L-lysine
  Kinase activity: 2.30 pmol/min
[2]; receptor preparation E, stored <3 Days, 1 μM insulin or 0.24 μM poly L-lysine
  Kinase activity: 1.13 pmol/min
[2]; receptor preparations older than 36 months (data not shown)
  kinase activity after poly L-lysine treatment: no kinase activity

## poly L-ornithine
[3]
  stimulation of phosphorylation of the β subunit of the insulin receptor (and calmodulin): effective to stimulate the phosphorylation of the β subunit of the insulin receptor
[2]
  activation of the insulin receptor kinase over the control: approximately 4 fold
[2]; FIG. 2
  concentrations at which kinase activity is stimulated: 0.1 to 1.0 µM

## protamine sulfate
[3]
  stimulation of phosphorylation of the β subunit of the insulin receptor (and calmodulin): appeared to stimulate the phosphorylation of both the β subunit of the insulin receptor and calmodulin
[2]; 10 μM, FIG. 2
  stimulatory effect on kinase activity relative to basal: approximately two-fold
